Source: patent US9376442B2, “Methylpyrrolopyrimidinecarboxamides” (Takeda GmbH, priority 2009, dated 2016)

Tests used:
PDE5A1 = target: T1, PDE5A1 (Homo sapiens, UniProt O76074); assay: Inhibition of type 5 phosphodiesterase (PDE5) activity, modified SPA test with human platelet lysate; assay type: biochemical; settings: 0.5 μM cGMP, read-out: PDE5A1 inhibitory values [measured as −log IC50 (mol/l)] (converted)
T1 construct: from tissue; host or cells: human platelets from fresh donor blood (10,000 x g supernatant of sonicated lysate)
How it was run: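 Scintillation proximity assay with [3H]cGMP tracer at 0.5 μM total cGMP, stopped after 15 min with beads containing IBMX. PDE3 and PDE2 activities suppressed with motapizone (1 μM) and a PDE2 inhibitor (10 nM). Human platelet supernatant served as the enzyme, with compound preincubated 5 min at 37° C; IC50 values from concentration-effect curves.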

PDE4B1 = target: T2, PDE4B1 (Homo sapiens, UniProt Q07343); assay: Inhibition of type 4 phosphodiesterase (PDE4) activity, modified SPA test with recombinant PDE4B1 expressed in SF21 insect cells; assay type: biochemical; settings: recombinant PDE4B1, 0.5 μM cAMP, read-out: PDE4B1 inhibitory values [measured as −log IC50 (mol/l)] (converted)
T2 construct: made in house; host or cells: SF21 insect cells (baculovirus; pCRBac vector), 1000 x g supernatant of homogenate
T2 sequence (Q07343 whole entry): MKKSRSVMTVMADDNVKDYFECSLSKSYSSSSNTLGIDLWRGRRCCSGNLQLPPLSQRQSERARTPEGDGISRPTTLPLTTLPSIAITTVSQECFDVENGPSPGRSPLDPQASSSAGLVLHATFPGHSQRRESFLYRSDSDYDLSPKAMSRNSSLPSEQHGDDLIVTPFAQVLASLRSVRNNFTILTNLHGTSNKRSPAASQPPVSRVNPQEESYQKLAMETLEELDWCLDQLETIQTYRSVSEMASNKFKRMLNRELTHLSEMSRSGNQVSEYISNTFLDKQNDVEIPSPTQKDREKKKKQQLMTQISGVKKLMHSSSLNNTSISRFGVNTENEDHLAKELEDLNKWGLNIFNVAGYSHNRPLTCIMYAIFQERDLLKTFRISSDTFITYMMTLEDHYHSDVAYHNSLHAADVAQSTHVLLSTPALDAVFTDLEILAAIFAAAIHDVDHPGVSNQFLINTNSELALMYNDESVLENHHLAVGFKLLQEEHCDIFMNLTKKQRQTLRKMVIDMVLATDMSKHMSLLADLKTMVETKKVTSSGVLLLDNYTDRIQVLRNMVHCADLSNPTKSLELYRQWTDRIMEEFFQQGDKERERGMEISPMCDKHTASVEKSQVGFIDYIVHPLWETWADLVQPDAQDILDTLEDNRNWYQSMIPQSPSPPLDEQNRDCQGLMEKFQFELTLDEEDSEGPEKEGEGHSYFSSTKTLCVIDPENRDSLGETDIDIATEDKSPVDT
How it was run: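 Modified [3H]cAMP SPA using 1000×g supernatant of SF21 cells expressing recombinant human PDE4B1, in 20 mM Tris pH 7.4, 0.1 mg/ml BSA, 5 mM Mg2+, 0.5 μM cAMP. After 5 min preincubation at 37 °C, 15 min reaction, stopped with SPA beads plus IBMX; IC50 by non-linear regression.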

Compound	IC50 (PDE5A1) [nM]	IC50 (PDE4B1) [nM]
CC(=O)N[C@H]1CC[C@@H](NC(=O)c2c(C)[nH]c3c(-c4cc(F)ccc4OCC4CC4)ncnc23)CC1 [Example E45, N-(cis-4-acetamidocyclohexyl)-4-[2-(cyclopropylmethoxy)-5-fluorophenyl]-6-methyl-5H-pyrrolo[3,2-d]pyrimidine-7-carboxamide]	1 to 10	100 to 1000
CCC(=O)N[C@H]1CC[C@H](NC(=O)c2c(C)[nH]c3c(-c4cc(C(F)(F)F)ccc4OCC4CC4)ncnc23)CC1 [Example E94, 4-[2-(cyclopropylmethoxy)-5-(trifluoromethyl)phenyl]-6-methyl-N-[trans-4-(propanoylamino)cyclohexyl]-5H-pyrrolo[3,2-d]pyrimidine-7-carboxamide]	< 1	< 100
COCC(=O)N[C@H]1CC[C@H](NC(=O)c2c(C)[nH]c3c(-c4cc(OC)ccc4OCC4CC4)ncnc23)CC1 [Example E71, 4-[2-(Cyclopropylmethoxy)-5-methoxyphenyl]-N-{trans-4-[(methoxyacetyl)amino]cyclohexyl}-6-methyl-5H-pyrrolo[3,2-d]pyrimidine-7-carboxamide]	< 1	100 to 1000
CCC(=O)N1CCC(NC(=O)c2c(C)[nH]c3c(-c4cc(CC)ccc4OCC4CC4)ncnc23)CC1 [Example E146, 4-[2-(Cyclopropylmethoxy)-5-ethylphenyl]-6-methyl-N-(1-propanoylpiperidin-4-yl)-5H-pyrrolo[3,2-d]pyrimidine-7-carboxamide]	< 1	100 to 1000
COc1ccc(OCC2CC2)c(-c2ncnc3c(C(=O)N[C@H]4CC[C@@H](NC(C)=O)CC4)c(C)[nH]c23)c1 [Example E72, N-(cis-4-acetamidocyclohexyl)-4-[2-(cyclopropylmethoxy)-5-methoxyphenyl]-6-methyl-5H-pyrrolo[3,2-d]pyrimidine-7-carboxamide]	< 1	100 to 1000
CCc1ccc(OCC2CC2)c(-c2ncnc3c(C(=O)N[C@H]4CC[C@@H](NC(=O)COC)CC4)c(C)[nH]c23)c1 [Example E153, 4-[2-(Cyclopropylmethoxy)-5-ethylphenyl]-N-{cis-4-[(methoxyacetyl)amino]cyclohexyl}-6-methyl-5H-pyrrolo[3,2-d]pyrimidine-7-carboxamide]	< 1	100 to 1000
CCC(=O)N[C@H]1CC[C@H](NC(=O)c2c(C)[nH]c3c(-c4cc(C)ccc4OCC4CC4)ncnc23)CC1 [Example E85, 4-[2-(Cyclopropylmethoxy)-5-methylphenyl]-6-methyl-N-[trans-4-(propanoylamino)cyclohexyl]-5H-pyrrolo[3,2-d]pyrimidine-7-carboxamide]	< 1	< 100
COCC(=O)N1CCC(NC(=O)c2c(C)[nH]c3c(-c4cc(F)ccc4OCC4CC4)ncnc23)CC1 [Example E39, 4-(2-Cyclopropylmethoxy-5-fluoro-phenyl)-6-methyl-5H-pyrrolo[3,2-d]pyrimidine-7-carboxylic acid [1-(2-methoxy-acetyl)-piperidin-4-yl]-amide]	1 to 10	100 to 1000
CCC(=O)N[C@H]1CC[C@H](NC(=O)c2c(C)[nH]c3c(-c4cc(OC)ccc4OCC4CC4)ncnc23)CC1 [Example E70, 4-[2-(Cyclopropylmethoxy)-5-methoxyphenyl]-6-methyl-N-[trans-4-(propionylamino)cyclohexyl]-5H-pyrrolo[3,2-d]pyrimidine-7-carboxamide]	< 1	100 to 1000
CC(=O)N1CCC(NC(=O)c2c(C)[nH]c3c(-c4cc(C)ccc4OCC4CC4)nc(C)nc23)CC1 [Example E169, N-(1-Acetylpiperidin-4-yl)-4-[2-(cyclopropylmethoxy)-5-methylphenyl]-2,6-dimethyl-5H-pyrrolo[3,2-d]pyrimidine-7-carboxamide]	< 1	100 to 1000
CCOC(=O)N1CCC(NC(=O)c2c(C)[nH]c3c(-c4cc(F)ccc4OCC4CC4)ncnc23)CC1 [Example E40, Ethyl 4-[({4-[2-(cyclopropylmethoxy)-5-fluorophenyl]-6-methyl-5H-pyrrolo[3,2-d]pyrimidin-7-yl}carbonyl)amino]piperidine-1-carboxylate]	< 1	100 to 1000
CCC(=O)N[C@H]1CC[C@H](NC(=O)c2c(C)[nH]c3c(-c4cc(F)ccc4OCC4CC4)ncnc23)CC1 [Example E42, 4-[2-(Cyclopropylmethoxy)-5-fluorophenyl]-6-methyl-N-[trans-4-(propionylamino)cyclohexyl]-5H-pyrrolo[3,2-d]pyrimidine-7-carboxamide]	< 1	< 100
Cc1ccc(OCC2CC2)c(-c2ncnc3c(C(=O)N[C@H]4CCC[C@H]4O)c(C)[nH]c23)c1 [Example E177, 4-[2-(Cyclopropylmethoxy)-5-methylphenyl]-N-[(1S,2R)-2-hydroxycyclopentyl]-6-methyl-5H-pyrrolo[3,2-d]pyrimidine-7-carboxamide]	1 to 10	100 to 1000

Next, values leading:

IC50 (PDE5A1) [nM]	IC50 (PDE4B1) [nM]	Compound
< 1	< 100	Cc1[nH]c2c(-c3cc(C(F)(F)F)ccc3OCC3CC3)ncnc2c1C(=O)N[C@H]1CC[C@@H](NC(=O)CO)CC1 [Example F61, 4-[2-(Cyclopropylmethoxy)-5-(trifluoromethyl)phenyl]-N-{cis-4-[(hydroxyacetyl)amino]cyclohexyl}-6-methyl-5H-pyrrolo[3,2-d]pyrimidine-7-carboxamide]
< 1	100 to 1000	COc1ccc(OCC2CC2)c(-c2ncnc3c(C(=O)NC4CCC(NC(=O)C(C)O)CC4)c(C)[nH]c23)c1 (stereo not drawn) [Example F44, 4-[2-(Cyclopropylmethoxy)-5-methoxyphenyl]-N-(trans-4-{[(25)-2-hydroxypropanoyl]amino}cyclohexyl)-6-methyl-5H-pyrrolo[3,2-d]pyrimidine-7-carboxamide]
< 1	100 to 1000	Cc1[nH]c2c(-c3cc(C(C)C)ccc3OCC3CC3)ncnc2c1C(=O)N[C@H]1CC[C@H](NC(=O)[C@H](C)O)CC1 [Example F100, 4-[2-(Cyclopropylmethoxy)-5-(propan-2-yl)phenyl]-N-(trans-4-{[(2S)-2-hydroxypropanoyl]amino}cyclohexyl)-6-methyl-5H-pyrrolo[3,2-d]pyrimidine-7-carboxamide]
< 1	< 100	CCC(=O)N[C@H]1CC[C@H](NC(=O)c2c(C)[nH]c3c(-c4cc(C(F)F)ccc4OCC4CC4)ncnc23)C[C@@H]1F (relative stereo) [Example P210, 4-[2-(Cyclopropylmethoxy)-5-(difluoromethyl)phenyl]-N-[(1S*,3S*,4S*)-3-fluoro-4-(propanoylamino)cyclohexyl]-6-methyl-5H-pyrrolo[3,2-d]pyrimidine-7-carboxamide]
< 1	100 to 1000	COc1ccc(OCC2CC2)c(-c2ncnc3c(C(=O)NC4CCN(C(=O)[C@H](C)O)CC4)c(C)[nH]c23)c1 [Example F42, 4-[2-(Cyclopropylmethoxy)-5-methoxyphenyl]-N-{1-[(2S)-2-hydroxypropanoyl]piperidin-4-yl}-6-methyl-5H-pyrrolo[3,2-d]pyrimidine-7-carboxamide]
1 to 10	< 100	COCC(=O)N1C[C@@H](NC(=O)c2c(C)[nH]c3c(-c4cc(C(F)F)ccc4OCC4CC4)ncnc23)C[C@@H]1C [Example P26, 4-[2-(Cyclopropylmethoxy)-5-(difluoromethyl)phenyl]-N-[(3S,5S)-1-(methoxyacetyl)-5-methylpyrrolidin-3-yl]-6-methyl-5H-pyrrolo[3,2-d]pyrimidine-7-carboxamide]
< 1	< 100	CC(=O)N[C@H]1CC[C@H](NC(=O)c2c(C)[nH]c3c(-c4cc(C(F)F)ccc4OCC4CC4)ncnc23)[C@@H](C)C1 (relative stereo) [Example P139, N-[(1S*,2S*,4S*)-4-(Acetylamino)-2-methylcyclohexyl]-4-[2-(cyclopropylmethoxy)-5-(difluoromethyl)phenyl]-6-methyl-5H-pyrrolo[3,2-d]pyrimidine-7-carboxamide]
< 1	< 100	CC(=O)N[C@H]1CC[C@H](NC(=O)c2c(C)[nH]c3c(-c4cc(C(F)F)ccc4OCC4CC4)ncnc23)C[C@@H]1F (relative stereo) [Example P209, N-[(1S*,3S*,4S*)-4-(Acetylamino)-3-fluorocyclohexyl]-4-[2-(cyclopropylmethoxy)-5-(difluoromethyl)phenyl]-6-methyl-5H-pyrrolo[3,2-d]pyrimidine-7-carboxamide]
< 1	< 100	COCC(=O)N[C@H]1CC[C@H](NC(=O)c2c(C)[nH]c3c(-c4cc(C(F)F)ccc4OCC4CC4)ncnc23)C[C@@H]1C (relative stereo) [Example P191, 4-[2-(Cyclopropylmethoxy)-5-(difluoromethyl)phenyl]-N-{(1S*,3S*,4S*)-4-[(methoxyacetyl)amino]-3-methylcyclohexyl}-6-methyl-5H-pyrrolo[3,2-d]pyrimidine-7-carboxamide]
< 1	< 100	CCc1ccc(OCC2CC2)c(-c2ncnc3c(C(=O)N[C@H]4CC[C@H](NC(=O)[C@H](C)O)CC4)c(C)[nH]c23)c1 [Example F94, 4-[2-(Cyclopropylmethoxy)-5-ethylphenyl]-N-(trans-4-{[(2S)-2-hydroxypropanoyl]amino}cyclohexyl)-6-methyl-5H-pyrrolo[3,2-d]pyrimidine-7-carboxamide]
